According to patent US9867798B2, “Ladostigil therapy for immunomodulation” (priority 2012, dated 2018):

Tests used:
[1] = system: IL-1β and MPO in colon; assay: Cytokines and myeloperoxidase in colon of DSS-treated mice; assay type: in vivo; conditions: 8th day of DSS ingestion, 5 vs 10 mg/kg
Procedure: TNF-α, IL-6, and IL-1β levels in homogenized colon were measured by means of a BioLegend ELISA Mouse kit. One cm of colon was homogenized in ice-cold PBS buffer containing protease inhibitor cocktail (Sigma, St. Louis, Mo., USA; dilution 1:100) using a Polytron homogenizer, and then centrifuged for 15 min at 14,000 rpm at 4° C. Supernatants were diluted 1:5 in diluent buffer supplied in the kit and applied to 96-well MaxiSorb Elisa plates according to manufacturer's protocol. Total protein concentration in the tissue supernatant was measured by means of a BCA kit. Levels of cytokines are expressed as pg/mg total tissue protein.
Neutrophil infiltration was monitored by measuring myeloperoxidase (MPO) activity in colon segments according to the protocol described by Bradley (1982) in 96-well micro-titer plates by mixing 10 μl of the supernatant with 290 μl of o-dianisidine dihydrochloride solution. Data were interpolated from a MPO standard curve. MPO activity was expressed as units per μg total protein measured in the sample by Pierce BCA Protein Assay Kit as described above.

[2] = system: rat heart ischemia/reperfusion; assay: Myocardial ischemic preconditioning, isolated Langendorff hearts of chronically treated rats; assay type: in vivo, Wistar rats; set-up: DP: unit not given beside the values; conditions: for DP / HR / WI: old rats; for WI: percent of value at end of stabilization
Procedure: Four groups of male rats of the Wistar strain were used for these studies; a) 3-months old untreated; b) 22 months old, untreated; c) 22 months old treated from the age of 16 months by daily oral administration of ladostigil hemitartrate at a dose of 1 mg/kg/day (hereinafter “low dose”; d) 22 months old treated from the age of 16 months by daily oral administration of ladostigil hemitartrate at a dose of 8.5 mg/kg/day (hereinafter “high dose”).
On the day of the experiment, rats were injected with i.p. sodium heparin (500 units/kg) followed 30 min later by 80 mg/kg ketamine plus 5 mg/kg xylazine i.p. Bilateral thoracotomy was performed and hearts with a segment of the ascending aorta were rapidly excised, put in ice-cold heparinized saline and mounted onto the Langendorff apparatus. They were perfused with a modified Krebs-Henseleit (KH) buffer as described in Chevion et al. (1993). Heart rate (HR), developed pressure (DP), and its derivatives (+dp/dt and −dp/dt) were recorded. All primary data were processed using a customized version of LabView 7.1 software (National Instruments, Austin, Tex., USA). Work index (WI=Heart Rate×DP) was used as an indicator of heart contractility. The degree of cardio-protection was expressed by the percent (ratio) of two values: WI at the completion of the experiment (at the 120th min) and WI at the completion of the stabilization phase (at the 10th min).
Experimental protocol: Three basic experimental protocols were employed: (i) continuous (un-interrupted) perfusion: (ii) stabilization (25 min) followed by ischemia and reperfusion (35/60 min) (I/R), and (iii) stabilization (10 min) followed by IPC, ischemia and reperfusion (IPC+I/R). The hemodynamic parameters of the heart were monitored and recorded continuously throughout, during all experimental protocols. Under the I/R protocol, the stabilization phase was extended from 10 to 25 min to compensate for the 15 min of the IPC procedure, which consisted of 3 cycles of (2 min ischemia and 3 min perfusion).

[3] = system: LPS-induced TNF-α, IL-1β and IL-6 in spleen; assay: Cytokines in spleen of mice injected with LPS (Example 4); assay type: in vivo, Balb/c mice
Procedure: Male Balb/c mice (aged 6-7 weeks, weighing 25-30 gm) were given ladostigil 10 mg/kg by gavage or 1 ml/kg saline followed 15 min later by an intra-peritoneal (i.p.) injection of LPS (10 mg/kg). For measurement of cytokine levels in the spleen and blood the mice were sacrificed 4 h after drug administration, blood collected in heparinized tubes and centrifuged to obtain plasma and the spleen was rapidly removed and weighed. Plasma and spleen were frozen in liquid nitrogen and stored at −80° C. until use.
For measurement of cytokine levels the tissue was diluted in PBS containing 0.8% NaCl, 0.144% NaHPO4, 0.024% KH2PO4 and protease inhibitor cocktail (Sigma Israel, P8340) and homogenized in an Ultra-TURRAX® homogenizer at a speed of 24,000 rpm, centrifuged at 14000 g for 15 min at 4° C. Cytokines were detected in the supernatant by using ELISA kits for cytokines IL-1β, IL-6, and TNF-α(Biolegend) following the manufacturer's protocol. Each experiment was performed 4 times with 6 replicate measures in each experiment. Protein concentration in each sample was determined with Bradford reagent (Bio-RAD, 500-0006).

[4] = IPC + I/R, high dose 8.5 mg/kg/day
[5] = IPC + I/R, low dose 1 mg/kg/day
[6] = 10 mg/kg by gavage + LPS 10 mg/kg i.p., four hours

Q: What does the source list for C#CCN[C@@H]1CCc2ccc(OC(=O)N(C)CC)cc21 [Ladostigil, R(+)-6-(N-methyl, N-ethyl-carbamoyloxy)-N′-propargyl-1-aminoindan]?
A: Reduction of IL-1β levels and MPO activity in colon [1]: 5 mg/kg was more effective than 10 mg/kg; Effect on WI after ischemia and 60 min reperfusion ([2]; aging rats, I/R without IPC, either dose): no significant effect; DP ([2]; I/R, high dose 8.5 mg/kg/day): 14 ± 6; HR ([2]; I/R, high dose 8.5 mg/kg/day): 83 ± 8; WI ([2]; I/R, high dose 8.5 mg/kg/day): 12 ± 5%; DP ([2]; I/R, low dose 1 mg/kg/day): 20 ± 10; HR ([2]; I/R, low dose 1 mg/kg/day): 67 ± 15; WI ([2]; I/R, low dose 1 mg/kg/day): 13 ± 6%; DP [2, 4]: 30 ± 12; HR [2, 4]: 92 ± 28; WI ([2]; IPC + I/R, high dose 8.5 mg/kg/day, 8.5 mg/kg/day): 26 ± 6%; WI ([2]; IPC + I/R, high dose 8.5 mg/kg/day, listed as ladostigil, 8.5 mg/kg/day): much smaller; DP [2, 5]: 68 ± 15; HR [2, 5]: 77 ± 8; WI ([2]; IPC + I/R, low dose 1 mg/kg/day, 1 mg/kg/day): 53 ± 12%; WI ([2]; IPC + I/R, low dose 1 mg/kg/day, listed as ladostigil, 1 mg/kg/day): > 50%; Reduction of IL-1β levels in spleen ([3]; 10 mg/kg + LPS, Example 4): 28.1%; Reduction of IL-6 levels in spleen ([3]; 10 mg/kg + LPS, Example 4): 46.7%; Reduction of TNF-α levels in spleen ([3]; 10 mg/kg + LPS, Example 4): 49.6%; IL-1β in spleen [3, 6]: 1.37 ± 0.04 ng/mg protein; IL-6 in spleen [3, 6]: 179 ± 20 pg/mg protein; TNF-α in spleen [3, 6]: 8.3 ± 0.9 pg/mg protein; Reduction of elevation of pro-inflammatory cytokines in the spleen ([3]; oral dose prior to LPS, Example 4 conclusion): 28-50%
